{"source": "patent US20140303242A1", "about": "“Sparstolonin B Based Pharmaceutical Agent to Treat Pathological Angiogensis” (University of South Carolina, priority 2013, published 2014)", "key": {"[1]": {"system": "HUVECs", "assay": "Matrigel tube formation assay (HUVECs)", "assay_type": "cell-based, human", "conditions": "concentrations between 1 and 100 μM, 4 h, p<0.05", "description": "To initially determine if SsnB inhibited pro-angiogenic cell functions, a tube formation assay with Matrigel was performed. Growth factor reduced Matrigel (BD Biosciences, Bedford, Mass.) was added to the wells of a 96 well polystyrene culture plate and incubated at 37° C. for 30 minutes. Cells (HUVECs, HCAECs, or HMVECs at passage 2 to 4) were added to each well to reach a final number of 20,000 cells per well. SsnB was added to the wells at a concentration of 1, 10, or 100 μM. Endothelial cell medium with DMSO (0.1%) was used as a vehicle control. Each group contained 4 replicates. The plates were placed in an incubator for 4 h. During the incubation, the endothelial cells formed elongated structures called cords, also known as tubes. After 4 h, neutral buffered formalin was added to fix the cells. Pictures of three non-overlapping fields were taken from each well. The lengths of single cell endothelial cords were measured with Image-Pro Plus (Media Cybernetics, Silver Spring, Md.), and the sum of tube lengths for each well was determined. The average total length and standard deviation for each group were determined, and the appropriate statistical tests (ANOVA and Newman-Keuls) were completed. The tube formation assay was replicated three times for both HUVECs and HCAECs. The assay was also repeated with cardiac HMVECs."}, "[2]": {"system": "HUVECs", "assay": "Transwell insert cell migration assay (VEGF-induced)", "assay_type": "cell-based, human", "conditions": "8 h", "description": "The cell invasion assay was performed with a Transwell insert system (6.5 mm diameter inserts with 8.0 μm pores in a polycarbonate membrane situated in wells of 24 well polystrene, tissue culture treated plates, Corning Incorporated, Corning, N.Y.). The Transwell inserts were coated with 0.1% gelatin for 30 min and incubated in low serum medium for 1 h. Cultured HUVECs were trypsinized and then resuspended in low serum medium (0.5% fetal bovine serum without endothelial cell mitogen), and added at 50,000 cells per insert. The cells were allowed to adhere to the inserts for 30 min. Next, various concentrations of SsnB (0.0001, 0.001, 0.01, 0.1, 1, 10, and 100 μM) or vehicle control (0.1% DMSO) were added to the Transwell inserts. After 30 min, the medium in the lower chamber for the experimental groups was replaced with low serum medium containing 10 ng/ml VEGF and thus establishing a chemoattractant gradient between the top insert and lower chamber. For the negative control group, the medium was replaced with low serum medium (0.5% fetal bovine serum). The plates were incubated for 8 h at 37° C. During the incubation, the cells migrated through the pores of the Transwell insert towards the lower chamber. […] Cells were counted from four random fields observed with a 10× objective lens. […]"}, "[3]": {"system": "HCAECs", "assay": "Microarray gene expression analysis (HCAECs)", "assay_type": "cell-based, human", "conditions": "24 h", "description": "Confluent plates (100×20 mm polystyrene, tissue culture-treated petri plates coated with 0.1% gelatin, 75% confluent) of HUVECs and HCAECs (four plates for HUVECs, n=2, and six plates for HCAECs, n=3) were chosen for the microarray experiments. Half of the plates received complete growth medium (10% fetal bovine serum with endothelial mitogen) containing vehicle control (0.1% DMSO), and the remaining plates received complete growth medium containing 100 μM SsnB. The plates were incubated for 24 h to allow SsnB to have an effect on cellular gene expression. Following incubation, RNA isolation was completed with the RNeasy Mini kit from Qiagen. The cells were lysed, and RNA was isolated by using the RNeasy spin columns and following the protocol provided by Qiagen. Purified RNA was sent to the Medical University of South Carolina Proteogenomics Facility for microarray analysis. The GeneChip Human Genome U133 Plus 2.0 Array was utilized to track changes in gene expression due to SsnB treatment. Complete data was uploaded to the NCBI Gene Expression Omnibus database (accession number GSE44598).\n(§1) Microarray data analysis, including data normalization (robust multi-array average), identification of differentially expressed genes (comparative analyses with dChip software), and heat map construction, was carried out to determine how SsnB affects gene expression and affected pathways (n=2 for HUVECs and n=3 for HCAECs). After a careful analysis of the microarray data, several key genes were chosen for qRT-PCR to verify the gene expression results. The genes were chosen based on the following criteria: fold change ≧2, p<0.05, unpaired t-test with a false discovery rate approximating 0%, appearing in both data sets (HUVECs and HCAECs), and gene function relating to cell proliferation and/or angiogenesis. For qRT-PCR, the expression levels were normalized to the housekeeping gene GAPDH, and RNA levels were compared between groups with the ΔΔCt method."}, "[4]": {"system": "HCAECs", "assay": "Real time RT-PCR gene expression (HCAECs)", "assay_type": "cell-based, human", "conditions": "24 h", "description": "After a careful analysis of the microarray data, key genes (CDC6, CCNE2, KITLG, ALDH3A1, CCNB1, CDC2, HMMR, DIAPH3, ANLN, and CDKN3) were chosen for quantitative real-time PCR (qRT-PCR) to verify the gene expression results. HCAECs and HUVECs were exposed to SsnB or vehicle control for 24 h (as previously described in the microarray section). For RT-PCR, RNA was isolated from the cells with the RNeasy Mini kit as described previously. After forward and reverse primer kits (Qiagen, Valencia, Calif.) were selected, the RNA was amplified. The one-step RT-PCR reactions were completed on the BioRad iCycler thermal cycler system in the Instrumentation Resource Facility at the USC School of Medicine. The expression levels were normalized, and RNA levels were quantified.\nas §1"}, "[5]": {"system": "human aortic smooth muscle cells", "assay": "Cytotoxicity on human aortic smooth muscle cells", "assay_type": "cell-based", "conditions": "concentrations up to 100 μM"}, "[6]": {"conditions": "SsnB vs vehicle control, normalized to GAPDH"}}, "data": [{"smiles": "O=c1occ2c3c(ccc(O)c13)Oc1ccc(O)cc1-2", "note": "[SsnB, Sparstolonin B]", "values": [{"measurement": "HUVEC tube formation", "setting": "[1]", "result": "dose-dependent inhibition"}, {"measurement": "VEGF-induced cell migration inhibition, high concentrations", "setting": "[2]; between 0.1 and 100 μM", "result": "leveled off"}, {"measurement": "VEGF-induced cell migration", "setting": "[2]; concentrations between 0.0001 and 0.1 μM, p<0.05", "result": "dose-dependent inhibition"}, {"measurement": "ALDH3A1 Microarray Fold change value", "setting": "[3]; 100 μM SsnB vs vehicle control", "result": 8.8}, {"measurement": "ANLN Microarray Fold change value", "setting": "[3]; 100 μM SsnB vs vehicle control", "result": 0.11}, {"measurement": "CCNB1 Microarray Fold change value", "setting": "[3]; 100 μM SsnB vs vehicle control", "result": 0.16}, {"measurement": "CCNE2 Microarray Fold change value", "setting": "[3]; 100 μM SsnB vs vehicle control", "result": 0.38}, {"measurement": "CDC2 Microarray Fold change value", "setting": "[3]; 100 μM SsnB vs vehicle control", "result": 0.20}, {"measurement": "CDC6 Microarray Fold change value", "setting": "[3]; 100 μM SsnB vs vehicle control", "result": 0.18}, {"measurement": "CDKN3 Microarray Fold change value", "setting": "[3]; 100 μM SsnB vs vehicle control", "result": 0.18}, {"measurement": "DIAPH3 Microarray Fold change value", "setting": "[3]; 100 μM SsnB vs vehicle control", "result": 0.38}, {"measurement": "HMMR Microarray Fold change value", "setting": "[3]; 100 μM SsnB vs vehicle control", "result": 0.20}, {"measurement": "KITLG Microarray Fold change value", "setting": "[3]; 100 μM SsnB vs vehicle control", "result": 2.1}, {"measurement": "number of differentially expressed genes in response to SsnB exposure", "setting": "[3]; 100 μM, fold change ≧2, p<0.05", "result": 356, "unit": "genes"}, {"measurement": "ALDH3A1 expression (qRT-PCR)", "setting": "[4]", "result": "4620 % of controls"}, {"measurement": "CCNE2 gene expression after SsnB exposure (qRT-PCR)", "setting": "[4]", "result": "57 % of controls"}, {"measurement": "CDC6 gene expression after SsnB exposure (qRT-PCR)", "setting": "[4]", "result": "14 % of controls"}, {"measurement": "KITLG expression (qRT-PCR)", "setting": "[4]", "result": "260 % of controls"}, {"measurement": "ALDH3A1 PCR 2^ΔΔCt value", "setting": "[4]; [6]", "result": 46.2}, {"measurement": "ANLN PCR 2^ΔΔCt value", "setting": "[4]; [6]", "result": 0.13}, {"measurement": "CCNB1 PCR 2^ΔΔCt value", "setting": "[4]; [6]", "result": 0.13}, {"measurement": "CCNE2 PCR 2^ΔΔCt value", "setting": "[4]; [6]", "result": 0.57}, {"measurement": "CDC2 PCR 2^ΔΔCt value", "setting": "[4]; [6]", "result": 0.17}, {"measurement": "CDC6 PCR 2^ΔΔCt value", "setting": "[4]; [6]", "result": 0.14}, {"measurement": "CDKN3 PCR 2^ΔΔCt value", "setting": "[4]; [6]", "result": 0.22}, {"measurement": "DIAPH3 PCR 2^ΔΔCt value", "setting": "[4]; [6]", "result": 0.26}, {"measurement": "HMMR PCR 2^ΔΔCt value", "setting": "[4]; [6]", "result": 0.062}, {"measurement": "KITLG PCR 2^ΔΔCt value", "setting": "[4]; [6]", "result": 2.6}, {"measurement": "cytotoxic effects", "setting": "[5]", "result": "does not exhibit cytotoxic effects"}]}]}
